From ChEMBL document CHEMBL1146327, “Inhibitors of the FEZ-1 metallo-beta-lactamase” (Bioorg Med Chem Lett, 2007)
The source made the active and inactive calls. The rule behind the calls is not given here.

Tests used:
[1] = biological target: Metallo-beta-lactamase type 2 (Pseudomonas aeruginosa) (UniProt Q7WYA8); assay: Inhibition of metallo-beta-lactamases IMP1 assessed as residual activity at 100 uM
Bacillus cereus [2] = assay: Inhibition of metallo-beta-lactamases Bc2 assessed as residual activity at 100 uM
[3] = biological target: Metallo-beta-lactamase type 2 (Aeromonas hydrophila) (UniProt P26918); assay: Inhibition of metallo-beta-lactamases CphA assessed as residual activity at 100 uM
[4] = Inhibition of metallo-beta-lactamases L1 assessed as residual activity at 100 uM
Fluoribacter gormanii [5] = assay: Inhibition of metallo-beta-lactamases FEZ1 assessed as residual activity at 100 uM
Fluoribacter gormanii [6] = assay: (§1) Inhibition of metallo-beta-lactamases FEZ1; design: concentration or dose not given beside the values; settings: concentration not given here
[7] = biological target: Metallo-beta-lactamase type 2 (Aeromonas hydrophila) (UniProt P26918); assay: Inhibition of metallo-beta-lactamases CphA; settings: for inhibition: concentration not given here
[8] = Inhibition of metallo-beta-lactamases L1; settings: for inhibition: concentration not given here
[9] = biological target: Metallo-beta-lactamase type 2 (Pseudomonas aeruginosa) (UniProt Q7WYA8); assay: Inhibition of metallo-beta-lactamases IMP1; settings: for inhibition: concentration not given here
Bacillus cereus [10] = assay: Inhibition of metallo-beta-lactamases Bc2; settings: for inhibition: concentration not given here
[11] = as §1; design: species or system Fluoribacter gormanii

Sequence of Metallo-beta-lactamase type 2 (Aeromonas hydrophila) (P26918 whole entry): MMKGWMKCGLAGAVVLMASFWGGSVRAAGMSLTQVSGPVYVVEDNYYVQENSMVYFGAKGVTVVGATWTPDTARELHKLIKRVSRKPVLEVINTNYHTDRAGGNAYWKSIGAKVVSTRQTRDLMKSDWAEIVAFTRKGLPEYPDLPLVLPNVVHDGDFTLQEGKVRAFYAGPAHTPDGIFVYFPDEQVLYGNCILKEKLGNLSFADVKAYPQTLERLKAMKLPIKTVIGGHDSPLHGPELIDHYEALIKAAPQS
Sequence of Metallo-beta-lactamase type 2 (Pseudomonas aeruginosa) (Q7WYA8 whole entry): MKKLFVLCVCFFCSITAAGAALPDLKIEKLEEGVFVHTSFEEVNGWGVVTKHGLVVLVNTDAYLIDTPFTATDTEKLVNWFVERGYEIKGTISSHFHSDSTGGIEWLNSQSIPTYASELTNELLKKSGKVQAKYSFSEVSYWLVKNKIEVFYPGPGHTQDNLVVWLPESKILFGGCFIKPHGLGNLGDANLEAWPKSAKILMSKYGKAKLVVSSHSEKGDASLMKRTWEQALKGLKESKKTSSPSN

Activity [1] [%]	Activity (Bacillus cereus [2]) [%]	Activity [3] [%]	Activity [4] [%]	Activity (Fluoribacter gormanii [5]) [%]	inhibition (Fluoribacter gormanii [6]) [%]	Structure (SMILES)	further results
85	100	86	92	64	36	O=C(NO)c1cc(O)cc(C(=O)N2CCCC2)c1	
					53	O=C(NO)c1ccc(O)cc1	
					< 10	O=C(O)c1cccc(C(=O)NO)c1	inhibition [7]: < 10%; inhibition [8]: < 10%; inhibition [9]: < 10%; inhibition (Bacillus cereus [10]): < 10%
81	103	81	95	46	54	O=C(NO)c1cc(O)cc(C(=O)NCc2ccccc2)c1	
67	93	79	97	92		O=C(O)c1cc(O)cc(C(=O)NO)c1	
85	101	90	93	66	34	CCN(CC)C(=O)c1cc(O)cc(C(=O)NO)c1	
83	91	84	102	15		O=C(NO)c1cc(O)cc(C(=O)c2ccc(O)cc2)c1	
100	86	83	107	67		O=C(O)c1cc(O)cc(C(=O)c2ccc(O)cc2)c1	
						O=C(NO)c1cc(O)cc(O)c1	Ki [11]: 13.3 µM
92	82	90	103	42	58	O=C(NO)c1cc(O)cc(C(=O)Nc2ccccc2)c1	
					< 10	O=C(O)CCC(=O)NO	inhibition [7]: < 10%; inhibition [8]: < 10%; inhibition [9]: < 10%; inhibition (Bacillus cereus [10]): < 10%
					64	O=C(NO)c1cccc(O)c1	Ki [11]: 17.9 µM
93	103	92	96	47	53	CNC(=O)c1cc(O)cc(C(=O)NO)c1	
					55	O=C(NO)c1ccccc1	Activity [7]: inactive; Activity [8]: inactive; Activity [9]: inactive; Activity (Bacillus cereus [10]): inactive
					45	O=C(NO)c1ccccc1O	
